Assay results as given in the OligoGym collection.
Oligonucleotides are given in HELM: sugar(base)linkage, 5' to 3'; d 2'-deoxyribose, r ribose, m 2'-O-methylribose, p phosphate. ss, as = sense and antisense strand

What follows are substances tested against SOST (assay: reporter assay of Huesken 2005). Settings: siRNA.
Note: test concentration or dose not given here.

Going from “RNA1{r(C)p.r(G)p.r(C)p.r(C)p.r(A)p.r(A)p.r(G)p.r(C)p.r(C)p.r(G)p.r(G)p.r(U)p.r(C)p.r(A)p.r(C)p.r(C)p.r(G)p.r(A)p.r(G)p.d(T)p.d(T)}|RNA2{r(C)p.r(U)p.r(C)p.r(G)p.r(G)p.r(U)p.r(G)p.r(A)p.r(C)p.r(C)p.r(G)p.r(G)p.r(C)p.r(U)p.r(U)p.r(G)p.r(G)p.r(C)p.r(G)p.d(C)p.d(T)}$$$RNA1{StrandType:ss}|RNA2{StrandType:as}$” to “RNA1{r(U)p.r(C)p.r(G)p.r(G)p.r(C)p.r(C)p.r(G)p.r(C)p.r(G)p.r(G)p.r(C)p.r(A)p.r(A)p.r(G)p.r(U)p.r(G)p.r(G)p.r(U)p.r(G)p.d(T)p.d(T)}|RNA2{r(C)p.r(A)p.r(C)p.r(C)p.r(A)p.r(C)p.r(U)p.r(U)p.r(G)p.r(C)p.r(C)p.r(G)p.r(C)p.r(G)p.r(G)p.r(C)p.r(C)p.r(G)p.r(A)p.d(T)p.d(G)}$$$RNA1{StrandType:ss}|RNA2{StrandType:as}$”, the normalised inhibition (eCFP-eYFP dual reporter) rises from 59.1% to 66%.

First: RNA1{r(G)p.r(C)p.r(G)p.r(U)p.r(U)p.r(C)p.r(A)p.r(A)p.r(G)p.r(A)p.r(A)p.r(U)p.r(G)p.r(A)p.r(U)p.r(G)p.r(C)p.r(C)p.r(A)p.d(T)p.d(T)}|RNA2{r(U)p.r(G)p.r(G)p.r(C)p.r(A)p.r(U)p.r(C)p.r(A)p.r(U)p.r(U)p.r(C)p.r(U)p.r(U)p.r(G)p.r(A)p.r(A)p.r(C)p.r(G)p.r(C)p.d(C)p.d(T)}$$$RNA1{StrandType:ss}|RNA2{StrandType:as}$
Second: RNA1{r(G)p.r(C)p.r(G)p.r(C)p.r(G)p.r(C)p.r(A)p.r(A)p.r(G)p.r(G)p.r(U)p.r(G)p.r(C)p.r(G)p.r(C)p.r(C)p.r(U)p.r(G)p.r(G)p.d(T)p.d(T)}|RNA2{r(C)p.r(C)p.r(A)p.r(G)p.r(G)p.r(C)p.r(G)p.r(C)p.r(A)p.r(C)p.r(C)p.r(U)p.r(U)p.r(G)p.r(C)p.r(G)p.r(C)p.r(G)p.r(C)p.d(G)p.d(C)}$$$RNA1{StrandType:ss}|RNA2{StrandType:as}$
The normalised inhibition (eCFP-eYFP dual reporter) of the first is higher: 93.4% for the first, 41.3% for the second.

Going from “RNA1{r(C)p.r(U)p.r(G)p.r(G)p.r(U)p.r(G)p.r(G)p.r(C)p.r(C)p.r(U)p.r(C)p.r(G)p.r(U)p.r(G)p.r(C)p.r(A)p.r(A)p.r(G)p.r(U)p.d(T)p.d(T)}|RNA2{r(A)p.r(C)p.r(U)p.r(U)p.r(G)p.r(C)p.r(A)p.r(C)p.r(G)p.r(A)p.r(G)p.r(G)p.r(C)p.r(C)p.r(A)p.r(C)p.r(C)p.r(A)p.r(G)p.d(G)p.d(C)}$$$RNA1{StrandType:ss}|RNA2{StrandType:as}$” to “RNA1{r(C)p.r(C)p.r(G)p.r(G)p.r(U)p.r(G)p.r(G)p.r(U)p.r(G)p.r(A)p.r(G)p.r(G)p.r(C)p.r(G)p.r(C)p.r(C)p.r(G)p.r(C)p.r(G)p.d(T)p.d(T)}|RNA2{r(C)p.r(G)p.r(C)p.r(G)p.r(G)p.r(C)p.r(G)p.r(C)p.r(C)p.r(U)p.r(C)p.r(A)p.r(C)p.r(C)p.r(A)p.r(C)p.r(C)p.r(G)p.r(G)p.d(G)p.d(A)}$$$RNA1{StrandType:ss}|RNA2{StrandType:as}$”, the normalised inhibition (eCFP-eYFP dual reporter) falls from 52.5% to 35.8%.

Going from “RNA1{r(U)p.r(C)p.r(A)p.r(A)p.r(G)p.r(A)p.r(A)p.r(U)p.r(G)p.r(A)p.r(U)p.r(G)p.r(C)p.r(C)p.r(A)p.r(C)p.r(G)p.r(G)p.r(A)p.d(T)p.d(T)}|RNA2{r(U)p.r(C)p.r(C)p.r(G)p.r(U)p.r(G)p.r(G)p.r(C)p.r(A)p.r(U)p.r(C)p.r(A)p.r(U)p.r(U)p.r(C)p.r(U)p.r(U)p.r(G)p.r(A)p.d(A)p.d(C)}$$$RNA1{StrandType:ss}|RNA2{StrandType:as}$” to “RNA1{r(G)p.r(G)p.r(U)p.r(G)p.r(A)p.r(G)p.r(G)p.r(C)p.r(G)p.r(C)p.r(C)p.r(G)p.r(C)p.r(G)p.r(C)p.r(G)p.r(C)p.r(G)p.r(C)p.d(T)p.d(T)}|RNA2{r(G)p.r(C)p.r(G)p.r(C)p.r(G)p.r(C)p.r(G)p.r(C)p.r(G)p.r(G)p.r(C)p.r(G)p.r(C)p.r(C)p.r(U)p.r(C)p.r(A)p.r(C)p.r(C)p.d(A)p.d(C)}$$$RNA1{StrandType:ss}|RNA2{StrandType:as}$”, the normalised inhibition (eCFP-eYFP dual reporter) falls from 68.7% to 26%.

Compared with “RNA1{r(C)p.r(G)p.r(U)p.r(G)p.r(U)p.r(A)p.r(G)p.r(U)p.r(G)p.r(G)p.r(A)p.r(G)p.r(G)p.r(G)p.r(C)p.r(C)p.r(A)p.r(G)p.r(G)p.d(T)p.d(T)}|RNA2{r(C)p.r(C)p.r(U)p.r(G)p.r(G)p.r(C)p.r(C)p.r(C)p.r(U)p.r(C)p.r(C)p.r(A)p.r(C)p.r(U)p.r(A)p.r(C)p.r(A)p.r(C)p.r(G)p.d(G)p.d(A)}$$$RNA1{StrandType:ss}|RNA2{StrandType:as}$”, “RNA1{r(G)p.r(U)p.r(A)p.r(G)p.r(U)p.r(G)p.r(G)p.r(A)p.r(G)p.r(G)p.r(G)p.r(C)p.r(C)p.r(A)p.r(G)p.r(G)p.r(G)p.r(G)p.r(U)p.d(T)p.d(T)}|RNA2{r(A)p.r(C)p.r(C)p.r(C)p.r(C)p.r(U)p.r(G)p.r(G)p.r(C)p.r(C)p.r(C)p.r(U)p.r(C)p.r(C)p.r(A)p.r(C)p.r(U)p.r(A)p.r(C)p.d(A)p.d(C)}$$$RNA1{StrandType:ss}|RNA2{StrandType:as}$” is higher in normalised inhibition (eCFP-eYFP dual reporter): 60.7% for the first, 63.5% for the second.

Going from “RNA1{r(C)p.r(C)p.r(G)p.r(C)p.r(A)p.r(G)p.r(C)p.r(G)p.r(C)p.r(C)p.r(A)p.r(A)p.r(G)p.r(C)p.r(C)p.r(G)p.r(G)p.r(U)p.r(C)p.d(T)p.d(T)}|RNA2{r(G)p.r(A)p.r(C)p.r(C)p.r(G)p.r(G)p.r(C)p.r(U)p.r(U)p.r(G)p.r(G)p.r(C)p.r(G)p.r(C)p.r(U)p.r(G)p.r(C)p.r(G)p.r(G)p.d(C)p.d(A)}$$$RNA1{StrandType:ss}|RNA2{StrandType:as}$” to “RNA1{r(G)p.r(G)p.r(A)p.r(C)p.r(U)p.r(U)p.r(C)p.r(G)p.r(G)p.r(G)p.r(A)p.r(C)p.r(C)p.r(G)p.r(A)p.r(G)p.r(G)p.r(C)p.r(C)p.d(T)p.d(T)}|RNA2{r(G)p.r(G)p.r(C)p.r(C)p.r(U)p.r(C)p.r(G)p.r(G)p.r(U)p.r(C)p.r(C)p.r(C)p.r(G)p.r(A)p.r(A)p.r(G)p.r(U)p.r(C)p.r(C)p.d(T)p.d(T)}$$$RNA1{StrandType:ss}|RNA2{StrandType:as}$”, the normalised inhibition (eCFP-eYFP dual reporter) rises from 51.3% to 53.8%.

First: RNA1{r(A)p.r(A)p.r(C)p.r(A)p.r(A)p.r(G)p.r(A)p.r(C)p.r(C)p.r(A)p.r(U)p.r(G)p.r(A)p.r(A)p.r(C)p.r(C)p.r(G)p.r(G)p.r(G)p.d(T)p.d(T)}|RNA2{r(C)p.r(C)p.r(C)p.r(G)p.r(G)p.r(U)p.r(U)p.r(C)p.r(A)p.r(U)p.r(G)p.r(G)p.r(U)p.r(C)p.r(U)p.r(U)p.r(G)p.r(U)p.r(U)p.d(G)p.d(T)}$$$RNA1{StrandType:ss}|RNA2{StrandType:as}$
Second: RNA1{r(G)p.r(U)p.r(G)p.r(C)p.r(C)p.r(G)p.r(C)p.r(A)p.r(G)p.r(C)p.r(G)p.r(C)p.r(C)p.r(A)p.r(A)p.r(G)p.r(C)p.r(C)p.r(G)p.d(T)p.d(T)}|RNA2{r(C)p.r(G)p.r(G)p.r(C)p.r(U)p.r(U)p.r(G)p.r(G)p.r(C)p.r(G)p.r(C)p.r(U)p.r(G)p.r(C)p.r(G)p.r(G)p.r(C)p.r(A)p.r(C)p.d(G)p.d(G)}$$$RNA1{StrandType:ss}|RNA2{StrandType:as}$
The normalised inhibition (eCFP-eYFP dual reporter) of the first is higher: 69.7% for the first, 49.6% for the second.

First: RNA1{r(C)p.r(C)p.r(U)p.r(C)p.r(C)p.r(A)p.r(C)p.r(C)p.r(G)p.r(G)p.r(A)p.r(G)p.r(C)p.r(U)p.r(G)p.r(G)p.r(A)p.r(G)p.r(A)p.d(T)p.d(T)}|RNA2{r(U)p.r(C)p.r(U)p.r(C)p.r(C)p.r(A)p.r(G)p.r(C)p.r(U)p.r(C)p.r(C)p.r(G)p.r(G)p.r(U)p.r(G)p.r(G)p.r(A)p.r(G)p.r(G)p.d(C)p.d(T)}$$$RNA1{StrandType:ss}|RNA2{StrandType:as}$
Second: RNA1{r(A)p.r(C)p.r(A)p.r(A)p.r(C)p.r(A)p.r(A)p.r(G)p.r(A)p.r(C)p.r(C)p.r(A)p.r(U)p.r(G)p.r(A)p.r(A)p.r(C)p.r(C)p.r(G)p.d(T)p.d(T)}|RNA2{r(C)p.r(G)p.r(G)p.r(U)p.r(U)p.r(C)p.r(A)p.r(U)p.r(G)p.r(G)p.r(U)p.r(C)p.r(U)p.r(U)p.r(G)p.r(U)p.r(U)p.r(G)p.r(U)p.d(T)p.d(C)}$$$RNA1{StrandType:ss}|RNA2{StrandType:as}$
The normalised inhibition (eCFP-eYFP dual reporter) of the first is higher: 68.8% for the first, 52.2% for the second.

First: RNA1{r(C)p.r(G)p.r(C)p.r(C)p.r(U)p.r(G)p.r(C)p.r(U)p.r(G)p.r(C)p.r(C)p.r(C)p.r(A)p.r(A)p.r(C)p.r(G)p.r(C)p.r(C)p.r(A)p.d(T)p.d(T)}|RNA2{r(U)p.r(G)p.r(G)p.r(C)p.r(G)p.r(U)p.r(U)p.r(G)p.r(G)p.r(G)p.r(C)p.r(A)p.r(G)p.r(C)p.r(A)p.r(G)p.r(G)p.r(C)p.r(G)p.d(C)p.d(G)}$$$RNA1{StrandType:ss}|RNA2{StrandType:as}$
Second: RNA1{r(C)p.r(U)p.r(U)p.r(C)p.r(A)p.r(C)p.r(C)p.r(C)p.r(G)p.r(C)p.r(U)p.r(A)p.r(C)p.r(G)p.r(U)p.r(G)p.r(A)p.r(C)p.r(C)p.d(T)p.d(T)}|RNA2{r(G)p.r(G)p.r(U)p.r(C)p.r(A)p.r(C)p.r(G)p.r(U)p.r(A)p.r(G)p.r(C)p.r(G)p.r(G)p.r(G)p.r(U)p.r(G)p.r(A)p.r(A)p.r(G)p.d(T)p.d(G)}$$$RNA1{StrandType:ss}|RNA2{StrandType:as}$
The normalised inhibition (eCFP-eYFP dual reporter) of the first is higher: 64.6% for the first, 59.4% for the second.

Going from “RNA1{r(G)p.r(C)p.r(C)p.r(A)p.r(G)p.r(G)p.r(G)p.r(G)p.r(U)p.r(G)p.r(G)p.r(C)p.r(A)p.r(G)p.r(G)p.r(C)p.r(G)p.r(U)p.r(U)p.d(T)p.d(T)}|RNA2{r(A)p.r(A)p.r(C)p.r(G)p.r(C)p.r(C)p.r(U)p.r(G)p.r(C)p.r(C)p.r(A)p.r(C)p.r(C)p.r(C)p.r(C)p.r(U)p.r(G)p.r(G)p.r(C)p.d(C)p.d(C)}$$$RNA1{StrandType:ss}|RNA2{StrandType:as}$” to “RNA1{r(C)p.r(C)p.r(G)p.r(C)p.r(G)p.r(A)p.r(G)p.r(C)p.r(U)p.r(G)p.r(C)p.r(A)p.r(C)p.r(U)p.r(U)p.r(C)p.r(A)p.r(C)p.r(C)p.d(T)p.d(T)}|RNA2{r(G)p.r(G)p.r(U)p.r(G)p.r(A)p.r(A)p.r(G)p.r(U)p.r(G)p.r(C)p.r(A)p.r(G)p.r(C)p.r(U)p.r(C)p.r(G)p.r(C)p.r(G)p.r(G)p.d(C)p.d(A)}$$$RNA1{StrandType:ss}|RNA2{StrandType:as}$”, the normalised inhibition (eCFP-eYFP dual reporter) falls from 77.7% to 66.8%.
